Data published in patent US9309248B2, “Azaindolines” (Hoffmann-La Roche Inc., priority 2012, dated 2016).

Legend:
BIR3 domain of XIAP = target: T1, BIR3 domain of XIAP (Homo sapiens, UniProt P98170); test: TR-FRET assay for BIR3 (inhibition of binding of XIAP BIR3 domain to SMAC-derived Peptide A); conditions: 6x Histidine-tagged BIR3 domain (amino acids 241-356 of XIAP) 10 nM, Peptide A 20 nM
T1 construct: BIR3 domain, corresponding to amino acids 241-356 of XIAP
Protocol: (§1) TR-FRET Assay for BIR2 and BIR3
(§2) The ability of a test compound to inhibit the binding of BIR2 and/or BIR3 domains of the XIAP protein to Peptide A (a SMAC-derived peptide described below) evidences that the test compound acts as a SMAC-mimetic resulting in reactivation of a cell's apoptotic pathway.
(§3) The peptides were labeled with the fluorescent tags FITC or TAMRA and Kd values were determined by fluorescence polarization assay. […] The peptide sequence was derivatized with biotin to provide […]-(ε-biotin)-OH 1:2 TFA as the substrate for the TR-FRET assay.
The sequence of the BIR3 domain used for the TR-FRET assay is […]
Ten nanomolar of 6× Histidine-tagged BIR2 domain, corresponding to amino acids 124-240 of XIAP, or BIR3 domain, corresponding to amino acids 241-356 of XIAP, was mixed with 20 nM of the peptide […]-(z-biotin)-OH 1:2 TFA, in the presence of 50 mM Tris-Cl, pH 7.5, 100 mM NaCl, 1 mM dithiothreitol (DTT) and 0.1 mg/mL bovine serum albumin (BSA). Following a […] incubation at 37° C., Europium-Streptavidin and Allophycocyanin conjugated anti-Histidine antibody were added to a final concentration of 1.5 nM and 15 nM, respectively. Time-resolved fluorescence resonance energy transfer (TR-FRET) signals were measured 1 hour later at room temperature. Test compound potency was assessed at 10 serially diluted concentrations. Percentage of inhibition at each concentration was determined to generate an IC50 value for each test compound.

BIR2 domain of XIAP = target: T2, BIR2 domain of XIAP (Homo sapiens, UniProt P98170, C202A/C213G); test: TR-FRET assay for BIR2 (inhibition of binding of XIAP BIR2 domain to SMAC-derived Peptide A); conditions: 6x Histidine-tagged BIR2 domain (amino acids 124-240 of XIAP) 10 nM, Peptide A 20 nM
T2 construct: 6× Histidine-tagged BIR2 domain, corresponding to amino acids 124-240 of XIAP
Protocol: as §1, §2, §3
The XIAP protein sequence was obtained from the SWISS-PROT protein sequence database and the BIR2 and BIR3 domains were derived from that. The sequence of the BIR2 domain used for the TR-FRET assay is […].
Time-resolved fluorescence resonance energy transfer (TR-FRET) signals were measured 1 hour later at room temperature. Test compound potency was assessed at 10 serially diluted concentrations. Percentage of inhibition at each concentration was determined to generate an IC50 value for each test compound.

T2 sequence (P98170 with tags, fused parts or gaps C202A/C213G): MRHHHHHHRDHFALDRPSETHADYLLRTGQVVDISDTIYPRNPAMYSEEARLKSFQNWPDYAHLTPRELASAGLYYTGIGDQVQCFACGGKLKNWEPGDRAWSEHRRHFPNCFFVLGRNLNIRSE
T1 sequence (P98170 with tags, fused parts or gaps): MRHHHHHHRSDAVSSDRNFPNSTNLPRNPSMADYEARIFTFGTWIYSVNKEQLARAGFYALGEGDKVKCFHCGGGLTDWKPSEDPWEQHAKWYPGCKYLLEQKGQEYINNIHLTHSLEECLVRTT

IC50 (BIR3 domain of XIAP) | IC50 (BIR2 domain of XIAP) | Compound
> 54800 nM | 33.5 nM | CN[C@@H](C)C(=O)N[C@H](C(=O)N1c2ncccc2C[C@H]1C(=O)Nc1ccccc1C)C(C)C [Example 14, (S)-1-[(S)-3-Methyl-2-((S)-2-methylamino-propionylamino)-butyryl]-2,3-dihydro-1H-pyrrolo[2,3-b]pyridine-2-carboxylic acid o-tolylamide]
45900 nM | 1800 nM | CN[C@@H](C)C(=O)N[C@H](C(=O)N1c2ncccc2C[C@@H]1C(=O)NCc1ccccc1)C(C)C [Example 15, (R)-1-[(S)-3-Methyl-2-((S)-2-methylamino-propionylamino)-butyryl]-2,3-dihydro-1H-pyrrolo[2,3-b]pyridine-2-carboxylic acid benzylamide]
3950 nM | 159 nM | CN[C@@H](C)C(=O)N[C@H](C(=O)N1c2ncccc2C[C@H]1C(=O)NCc1ccccc1)C(C)C [Example 16, (S)-1-[(S)-3-Methyl-2-((S)-2-methylamino-propionylamino)-butyryl]-2,3-dihydro-1H-pyrrolo[2,3-b]pyridine-2-carboxylic acid benzylamide]
24300 nM | 392 nM | CN[C@@H](C)C(=O)N[C@H](C(=O)N1c2ncccc2C[C@H]1C(=O)NCc1cc(Cl)ccc1C)C(C)C [Example 17, (S)-1-[(S)-3-Methyl-2-((S)-2-methylamino-propionylamino)-butyryl]-2,3-dihydro-1H-pyrrolo[2,3-b]pyridine-2-carboxylic acid 5-chloro-2-methyl-benzylamide]
> 54800 nM | 1360 nM | CN[C@@H](C)C(=O)N[C@H](C(=O)N1c2ncccc2C[C@@H]1C(=O)Nc1cnccc1C)C(C)C [Example 20, (R)-1-[(S)-3-Methyl-2-((S)-2-methylamino-propionylamino)-butyryl]-2,3-dihydro-1H-pyrrolo[2,3-b]pyridine-2-carboxylic acid (4-methyl-pyridin-3-yl)-amide]
> 54800 nM | 103 nM | CN[C@@H](C)C(=O)N[C@H](C(=O)N1c2ncccc2C[C@H]1C(=O)Nc1ccc(F)cc1C)C(C)C [Example 22, (S)-1-[(S)-3-Methyl-2-((S)-2-methylamino-propionylamino)-butyryl]-2,3-dihydro-1H-pyrrolo[2,3-b]pyridine-2-carboxylic acid (4-fluoro-2-methyl-phenyl)-amide]
9210 nM | 774 nM | CN[C@@H](C)C(=O)N[C@H](C(=O)N1c2ncccc2C[C@H]1C(=O)NCc1ccc(F)cc1)C(C)C [Example 24, (S)-1-[(S)-3-Methyl-2-((S)-2-methylamino-propionylamino)-butyryl]-2,3-dihydro-1H-pyrrolo[2,3-b]pyridine-2-carboxylic acid 4-fluoro-benzylamide]
52300 nM | 61 nM | CN[C@@H](C)C(=O)N[C@H](C(=O)N1c2ncccc2C[C@H]1C(=O)Nc1ccccc1C(=O)c1ccccc1)C(C)C [Example 26, (S)-1-[(S)-3-Methyl-2-((S)-2-methylamino-propionylamino)-butyryl]-2,3-dihydro-1H-pyrrolo[2,3-b]pyridine-2-carboxylic acid (2-benzoyl-phenyl)-amide]
> 54800 nM | 421 nM | CN[C@@H](C)C(=O)N[C@H](C(=O)N1c2ncccc2C[C@@H]1C(=O)Nc1c(F)cccc1F)C(C)C [Example 29, (R)-1-[(S)-3-Methyl-2-((S)-2-methylamino-propionylamino)-butyryl]-2,3-dihydro-1H-pyrrolo[2,3-b]pyridine-2-carboxylic acid (2,6-difluoro-phenyl)-amide]
46800 nM | 158 nM | CN[C@@H](C)C(=O)N[C@H](C(=O)N1c2ncccc2C[C@H]1C(=O)Nc1ccccc1Oc1ccccc1)C(C)C [Example 30, (S)-1-[(S)-3-Methyl-2-((S)-2-methylamino-propionylamino)-butyryl]-2,3-dihydro-1H-pyrrolo[2,3-b]pyridine-2-carboxylic acid (2-phenoxy-phenyl)-amide]
> 54800 nM | 9.59 nM | CN[C@@H](C)C(=O)N[C@H](C(=O)N1c2ncccc2C[C@H]1C(=O)Nc1c(C)cccc1F)C(C)C [Example 32, (S)-1-[(S)-3-Methyl-2-((S)-2-methylamino-propionylamino)-butyryl]-2,3-dihydro-1H-pyrrolo[2,3-b]pyridine-2-carboxylic acid (2-fluoro-6-methyl-phenyl)-amide]

Further lines, the compound ahead of its results:

Compound | IC50 (BIR3 domain of XIAP) | IC50 (BIR2 domain of XIAP)
CN[C@@H](C)C(=O)N[C@H](C(=O)N1c2ncccc2C[C@@H]1C(=O)Nc1ccccc1)C(C)C [Example 12, (R)-1-[(S)-3-Methyl-2-((S)-2-methylamino-propionylamino)-butyryl]-2,3-dihydro-1H-pyrrolo[2,3-b]pyridine-2-carboxylic acid phenylamide] | > 54800 nM | > 54800 nM
CN[C@@H](C)C(=O)N[C@H](C(=O)N1c2ncccc2C[C@@H]1C(=O)Nc1ccccc1C)C(C)C [Example 13, (R)-1-[(S)-3-Methyl-2-((S)-2-methylamino-propionylamino)-butyryl]-2,3-dihydro-1H-pyrrolo[2,3-b]pyridine-2-carboxylic acid o-tolylamide] | > 54800 nM | > 54800 nM
CN[C@@H](C)C(=O)N[C@H](C(=O)N1c2ncccc2C[C@H]1C(=O)Nc1ccccc1-c1ccccc1)C(C)C [Example 18, (S)-1-[(S)-3-Methyl-2-((S)-2-methylamino-propionylamino)-butyryl]-2,3-dihydro-1H-pyrrolo[2,3-b]pyridine-2-carboxylic acid biphenyl-2-ylamide] | 37600 nM | 108 nM
CN[C@@H](C)C(=O)N[C@H](C(=O)N1c2ncccc2C[C@H]1C(=O)Nc1cccc2ccccc12)C(C)C [Example 19, (S)-1-[(S)-3-Methyl-2-((S)-2-methylamino-propionylamino)-butyryl]-2,3-dihydro-1H-pyrrolo[2,3-b]pyridine-2-carboxylic acid naphthalen-1-ylamide] | 35100 nM | 54.5 nM
CN[C@@H](C)C(=O)N[C@H](C(=O)N1c2ncccc2C[C@H]1C(=O)Nc1ccc(F)cc1)C(C)C [Example 21, (S)-1-[(S)-3-Methyl-2-((S)-2-methylamino-propionylamino)-butyryl]-2,3-dihydro-1H-pyrrolo[2,3-b]pyridine-2-carboxylic acid (4-fluoro-phenyl)-amide] | > 54800 nM | 275 nM
CN[C@@H](C)C(=O)N[C@H](C(=O)N1c2ncccc2C[C@H]1C(=O)Nc1cc(F)cc(F)c1)C(C)C [Example 23, (S)-1-[(S)-3-Methyl-2-((S)-2-methylamino-propionylamino)-butyryl]-2,3-dihydro-1H-pyrrolo[2,3-b]pyridine-2-carboxylic acid (3,5-difluoro-phenyl)-amide] | > 54800 nM | 427 nM
CN[C@@H](C)C(=O)N[C@H](C(=O)N1c2ncccc2C[C@H]1C(=O)Nc1ccccc1Cl)C(C)C [Example 25, (S)-1-[(S)-3-Methyl-2-((S)-2-methylamino-propionylamino)-butyryl]-2,3-dihydro-1H-pyrrolo[2,3-b]pyridine-2-carboxylic acid (2-chloro-phenyl)-amide] | > 54800 nM | 25.4 nM
CN[C@@H](C)C(=O)N[C@H](C(=O)N1c2ncccc2C[C@@H]1C(=O)Nc1ccccc1C(=O)c1ccccc1)C(C)C [Example 27, (R)-1-[(S)-3-Methyl-2-((S)-2-methylamino-propionylamino)-butyryl]-2,3-dihydro-1H-pyrrolo[2,3-b]pyridine-2-carboxylic acid (2-benzoyl-phenyl)-amide] | > 54800 nM | 2110 nM
CN[C@@H](C)C(=O)N[C@H](C(=O)N1c2ncccc2C[C@H]1C(=O)Nc1c(F)cccc1F)C(C)C [Example 28, (S)-1-[(S)-3-Methyl-2-((S)-2-methylamino-propionylamino)-butyryl]-2,3-dihydro-1H-pyrrolo[2,3-b]pyridine-2-carboxylic acid (2,6-difluoro-phenyl)-amide] | > 54800 nM | 14.4 nM
CN[C@@H](C)C(=O)N[C@H](C(=O)N1c2ncccc2C[C@@H]1C(=O)Nc1ccccc1Oc1ccccc1)C(C)C [Example 31, (R)-1-[(S)-3-Methyl-2-((S)-2-methylamino-propionylamino)-butyryl]-2,3-dihydro-1H-pyrrolo[2,3-b]pyridine-2-carboxylic acid (2-phenoxy-phenyl)-amide] | > 54800 nM | 11700 nM
